Source: US7173063B1, “Topoisomerase poisons for the treatment of proliferative disorders” (Fred Hutchinson Cancer Research Center, priority 2000, dated 2007)

Key:
[1] = tested on: chicken pre-B cell line DT40; test: Thymidine incorporation toxicity assay in isogenic DT40 cells with or without KU70, RAD52, RAD54; type: cell-based; conditions: for effect of loss of homologous recombination (RAD52 or RAD54) on toxicity: DT40 with or without RAD52 or RAD54
Protocol: (§1) Cell lines were grown at 37° C. in an atmosphere of 5% CO2. The chicken pre-B cell line DT40 and its derivatives (Bezzubova, et al., Cell 89: 185–93 (1997), Takata, et al., EMBO Journal 17: 5497–508 (1998), Yamaguchi-Iwai, et al., Molecular & Cellular Biology 18: 6430–5 (1998)) were grown in RPMI containing 10% fetal calf serum and 1% chicken serum. The remaining cell lines were grown in DMEM with 10% fetal calf serum.
(§2) Toxicity assays in mammalian cell lines were performed using tritiated thymidine incorporation as a measure of the number of viable cells. […] Drug toxicity was measured as follows:
(§3) Cells were plated at a density of 500 cells per well in opaque 96 well plates (Packard) in a volume of 135 μL per well of the appropriate media. The plates were incubated overnight to allow cell adherence. Seven two-fold dilutions of the test compounds were added in a volume of 15 μL per well in triplicate, and 15 μL of media containing an appropriate concentration of DMSO was added to control wells in triplicate. Plates were incubated at 37° C. for 96 hours. The media was then replaced with 100 μL per well of the appropriate media containing 2 μCi/mL of (methyl-^3H) thymidine (Amersham Pharmacia Biotech), then plates were incubated for a further 24 hours at 37° C. Cells were washed three times with PBS, then 100 μL per well of scintillant was added (Microscint 20, Packard), and sealed plates were counted in a microplate reader (Packard Topcount). For suspension chicken cells, (methyl-^3H) thymidine was added directly to the drug-containing media at a concentration of 20 μCi/mL (comprising one tenth of the media volume) and incubated overnight. The suspension cells were transferred to a UniFilter GF/C plate (Packard) and washed with PBS in a plate washer (Packard). After drying, 25 μL per well of scintillant (Microscint 20, Packard) was added, and sealed plates were counted. Toxicity is expressed as a percentage of the control counts. For experiments involving shorter exposures to compounds, cells were grown in the presence of compound for the appropriate time, then the media was replaced with fresh drug-free media, and incubation continued for the remainder of 96 hours, followed by the normal tritiated thymidine uptake and washing protocol.
In the case of Topo II poisons, the drug/enzyme complex directly produces a DSB, which could occur in all phases of the cell cycle and can apparently be repaired by either DSB repair pathway. Topo I poisons, however, create a single strand break that is converted to a DSB by passage of a replication fork during ongoing DNA synthesis (D'Arpa, et al., Cancer Research 50: 6919–24 (1990), Hsiang, et al., Cancer Research 49: 5077–82 (1989), Holm, et al., Cancer Research 49: 6365–8 (1989)). It has been proposed that DSB's created in this context can only be repaired by homologous recombination, additionally requiring proteins involved in sister chromatid cohesion (Castano, et al., Genes & Development 10: 2564–76 (1996), Castano, et al., Nucleic Acids Research 24: 2404–10 (1996), Walowsky, et al., Journal of Biological Chemistry 274: 7302–8 (1999)).

purified Topo I = target: T1, purified Topo I (Homo sapiens, UniProt P11387); test: In vitro assay for DNA strand-break formation in the presence of purified Topo I; type: biochemical
T1 sequence (P11387 1-765): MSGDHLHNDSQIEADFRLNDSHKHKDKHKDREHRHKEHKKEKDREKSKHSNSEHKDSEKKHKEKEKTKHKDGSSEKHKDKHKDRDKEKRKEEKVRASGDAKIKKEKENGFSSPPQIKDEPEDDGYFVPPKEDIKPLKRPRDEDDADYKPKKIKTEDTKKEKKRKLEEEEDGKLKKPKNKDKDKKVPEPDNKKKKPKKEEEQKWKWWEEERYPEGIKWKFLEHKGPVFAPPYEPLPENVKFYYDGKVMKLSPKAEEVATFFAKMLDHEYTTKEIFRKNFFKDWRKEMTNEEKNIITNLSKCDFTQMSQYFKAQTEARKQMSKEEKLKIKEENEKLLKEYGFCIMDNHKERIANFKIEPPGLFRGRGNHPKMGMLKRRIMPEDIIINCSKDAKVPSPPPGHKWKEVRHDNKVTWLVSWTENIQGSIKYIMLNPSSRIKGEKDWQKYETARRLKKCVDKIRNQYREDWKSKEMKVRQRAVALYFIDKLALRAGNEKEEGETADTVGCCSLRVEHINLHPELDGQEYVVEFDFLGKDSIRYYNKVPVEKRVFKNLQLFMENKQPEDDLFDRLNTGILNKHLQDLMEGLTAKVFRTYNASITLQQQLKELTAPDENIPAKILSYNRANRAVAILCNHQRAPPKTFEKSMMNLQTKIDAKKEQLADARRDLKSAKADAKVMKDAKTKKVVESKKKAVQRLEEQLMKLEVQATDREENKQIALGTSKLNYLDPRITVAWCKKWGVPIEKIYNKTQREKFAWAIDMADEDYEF

ACHN, SW620, A549, MDA-N = test: Thymidine incorporation toxicity assay in four cancer derived cell lines; type: cell-based, human; conditions: for correlation between MDR1 activity and toxicity/sensitivity: A549, SW620, ACHN (MDR1 10, 31, 120); for cell line against which most effective: four tumor derived cell lines
Protocol: as §1, §2, §3
A common mechanism of tumor resistance to chemotherapeutic agents is overexpression of the drug efflux protein MDR1 (Kane, et al., Advances in Drug Research 28: 182–252 (1996), Nooter, et al., Leukemia Research 18: 233–43 (1994)). MDR1 is overexpressed in many tumor derived cell lines (for instance see http://dtp.nci.nih.gov/), and its overexpression inversely correlates with sensitivity to certain compounds (Kane, et al., Advances in Drug Research 28: 182–252 (1996)).

Rat1a fibroblasts [2] = test: Effect of exposure time on toxicity in Rat1a fibroblasts; type: cell-based, rat; conditions: for toxicity with a two hour exposure: additional experiments; for toxicity of four hour versus six hour exposure: total incubation 96 hours
Protocol: as §3

[3] = tested on: DSB repair defective rad50 and rad52 strains of Saccharomyces cerevisiae; type: cell-based; conditions: relative growth (OD660) vs solvent control
Excerpt: The strains are derived from the A364a genetic background, with the exception of BY4705, which is derived from the S288C background. Gene disruptions were generated by PCR fragment directed replacement (Baudin, et al., Nucleic Acids Research 21: 3329–30 (1993), Guldener, et al., Nucleic Acids Research 24: 2519–24 (1996)). Yeast overexpressing topoisomerase II was constructed by a PCR fragment directed promoter replacement of the topoisomerase II promoter with the yeast GPD promoter flanked upstream by the URA3 marker. All strains (except BY4705) bear the pleitropic drug sensitizing mutations erg6, pdr1, and pdr3 (Balzi, et al., Journal of Bioenergetics & Biomembranes 27: 71–6 (1995), Delaveau, et al, Molecular & General Genetics 244: 501–11 (1994), Gaber, et al., Molecular & Cellular Biology 9: 3447–56 (1989), Saunders, et al., Canadian Journal of Genetics & Cytology, 24: 493–503 (1982). Subik, et al, Current Genetics 10: 665–70 (1986)). The haploid yeast strain BY4705 (Brachmann, et al., Yeast 14: 115–32 (1998)) was used in the experiments described in FIG. 5. Plasmids expressing yeast or human topoisomerase I genes under the GAL promoter (Knab, et al., Journal of Biological Chemistry 268: 22322–30 (1993). Knab, et al., Journal of Biological Chemistry 270: 6141–8 (1995)) were transformed into BY4705 using standard procedures.
Yeast toxicity assays were performed essentially as follows: Exponentially growing cultures of the appropriate strains were diluted in synthetic complete media to a concentration of 7.4×10^4 cells/mL, and aliquots (135 μL) were transferred to each well of clear flat-bottomed 96 well plates. Compounds were added in duplicate or triplicate as 15 μL of the appropriate dilution in 5% DMSO. A 15 μL portion of 5% DMSO was added to control wells. […] Cell growth (OD660) in treated wells was plotted as a percentage of the growth in at least four averaged solvent control wells for the same strain. Camptothecin sodium salt (camptothecin Na) was the agent used in all yeast assays as standard.

Rat1a fibroblasts [4] = test: Effect of co-treatment with hydroxyurea (HU) on toxicity in Rat1a fibroblasts; type: cell-based, rat; conditions: six-hour exposure; 0, 0.25, 0.5 or 1 mM HU
Protocol: FIG. 6 illustrates the effect of exposure time and hydroxyurea on the toxicity of compound Ia and compound IIa. […] Rat1a fibroblasts were exposed to compound during growth for either four or six hours, the media was changed, then cells were grown for an appropriate period such that total incubation time was 96 hours, and processed as described in the Example below. […] The bar graph insets for each graph show growth inhibition by HU alone.
as §3
A six-hour exposure was used to test whether the toxicity of the same set of compounds is dependent on ongoing DNA synthesis. […] Thus, in contrast to camptothecin and topotecan, compounds Ia and IIa show no marked time dependency for toxicity (FIG. 6A) and are not inhibited by HU (FIG. 6B), indicating critical mechanistic differences between these compounds and camptothecin.

| SMILES | effect of loss of homologous recombination (RAD52 or RAD54) on toxicity [1] | correlation between MDR1 activity and toxicity/sensitivity (ACHN, SW620, A549, MDA-N) | cell line against which most effective (ACHN, SW620, A549, MDA-N) | toxicity with a two hour exposure (Rat1a fibroblasts [2]) | toxicity of four hour versus six hour exposure (Rat1a fibroblasts [2]) | further results |
| --- | --- | --- | --- | --- | --- | --- |
| CC[C@@]1(O)C(=O)OCc2c1cc1n(c2=O)Cc2cc3ccccc3nc2-1 [camptothecin, Camptothecin, reference compound] | minor effect | No correlation | most effective against the colon carcinoma derived cell line SW620 | no toxicity |  | effect of loss of KU70 on toxicity ([1]; DT40 with or without KU70): unaffected by KU70 expression; camptothecin concentration required in the in vitro assay relative to cell-based assays (purified Topo I): 100 fold; strand-break induction (purified Topo I): does induce strand-break formation; effectiveness of 96 hour exposure relative to four hour exposure (Rat1a fibroblasts [2]): ≤ 100 fold |
| COc1cc([C@@H]2c3cc4c(cc3[C@@H](O[C@@H]3O[C@@H]5CO[C@@H](C)O[C@H]5[C@H](O)[C@H]3O)[C@H]3COC(=O)[C@H]23)OCO4)cc(OC)c1O [etoposide, reference compound] | no effect |  |  | nearly full toxicity | little difference in toxicity |  |
| O=C1c2c(O)ccc(O)c2C(=O)c2c(NCCNCCO)ccc(NCCNCCO)c21 [mitoxantrone] |  |  |  |  |  | profile of selective toxicity: toxic to rad50 and rad52 strains, not toxic in rad14 or rad18 strains [3]: Agents with this profile include |
| CC(=O)O[C@H]1C(=O)[C@@]2(C)[C@H]([C@H](OC(=O)c3ccccc3)[C@]3(O)C[C@H](OC(=O)[C@H](O)[C@@H](NC(=O)c4ccccc4)c4ccccc4)C(C)=C1C3(C)C)[C@]1(OC(C)=O)CO[C@@H]1C[C@@H]2O [taxol, reference compound] |  | clear inverse correlation |  |  |  |  |
| CC[C@@]1(O)C(=O)OCc2c1cc1n(c2=O)Cc2cc3c(CN(C)C)c(O)ccc3nc2-1 [topotecan, Topotecan, reference compound] |  | No correlation | most effective against the colon carcinoma derived cell line SW620 |  | six-hour exposure being much more effective than a four-hour exposure | inhibition of toxicity by co-treatment with HU (Rat1a fibroblasts [4]): suppresses the toxicity |
